{"source": "patent US20260167927A1", "about": "“GLOMUS CELL-LIKE CELLS AND PRODUCTION METHOD THEREOF” (NATIONAL INSTITUTE OF ADVANCED INDUSTRIAL SCIENCE AND …, priority 2022, published 2026)", "system": "glomus cell-like cells", "assay": "ATP production by glomus cell-like cells in response to hypoxic stimulation with ion channel inhibitors", "format": "cell-based, human", "conditions": "for effect on ATP production in response to hypoxic stimulation: 2% O2, 10 to 30 minutes, vs KRB without inhibitor", "protocol": "Glomus cell-like cells on days 16 to 19 of induction were used. With Krebs-Ringer buffer (KRB: 120 mM of NaCl, 5 mM of KCI, 25 mM of NaHCO3, 2.5 mM of CaCI2, 1.1 mM of MgCl2, 0.1% bovine serum albumin, 2.8 mM of glucose, pH 7.2), glomus cell-like cells were washed twice. After adding KRB, the cells were incubated in a hypoxic CO2 incubator (2% O2) for 10 to 30 minutes. The supernatant was collected, and then ATP was measured using the ATP Determination Kit (Thermo Fisher Scientific: A22066). Cells were lysed in RIPA buffer (FUJIFILM Wako Pure Chemical Corporation: 182-02451), and the total protein content was determined using a Pierce™ BCA Protein Assay Kit (Thermo Fisher Scientific: 23225). ATP measurement results were corrected according to the total protein content.\nUsing KRB containing the K^+ channel inhibitor tetraethylammonium chloride (FUJIFILM Wako Pure Chemical Corporation: 206-04501) (final concentration: 5 mM), the Ca^2+ channel inhibitor nifedipine (FUJIFILM Wako Pure Chemical Corporation: 141-05783) (final concentration: 5 μM), or the Na^+ channel inhibitor lidocaine (FUJIFILM Wako Pure Chemical Corporation: 120-02691) (final concentration: 1 μM), cells were subjected to hypoxic stimulation using the procedure described in (3-1) above, and the amount of ATP production was analyzed. KRB without ion channel inhibitors was used as a control to analyze ATP production similarly."}
{"compound": "CCN(CC)CC(=O)Nc1c(C)cccc1C", "note": "[lidocaine, Lidocaine]", "values": [{"measurement": "effect on ATP production in response to hypoxic stimulation", "setting": "lidocaine 1 μM in KRB", "value": "inhibitory effect"}]}
{"compound": "CC[N+](CC)(CC)CC.[Cl-]", "note": "[tetraethylammonium chloride]", "values": [{"measurement": "effect on ATP production in response to hypoxic stimulation", "setting": "tetraethylammonium chloride 5 mM in KRB", "value": "promoting effect"}]}
{"compound": "apyrase", "values": [{"measurement": "ATP detected after hypoxic stimulation", "setting": "apyrase (ATPase) 2 U/mL added, FIG. 11", "value": "no ATP was detected"}]}
